Reference: patent publication US20080275226A1, “Medical Use of Paeoniflorin” (priority 2004, published 2008)
Entries after “also recorded” stand apart in the source; their conditions may differ.

Tests used:
[1] = test system: permanent MCAO model; experiment: Permanent focal cerebral ischemia model (permanent MCAO); type: in vivo, rat
[2] = test system: transient MCAO rats; experiment: Transient focal cerebral ischemia model (transient MCAO); type: in vivo; conditions: transient MCAO rat
[3] = molecular target: T1, A1R (Rattus norvegicus, UniProt P25099); experiment: Competitive binding with [3H]-NECA, high-affinity site (two-site fit), rat cerebral cortex synaptic membranes
T1 construct: Synaptic membranes of rat cerebral cortex are employed in the assay; from tissue; host or cells: rat cerebral cortex synaptic membranes
T1 sequence (P25099 1-326): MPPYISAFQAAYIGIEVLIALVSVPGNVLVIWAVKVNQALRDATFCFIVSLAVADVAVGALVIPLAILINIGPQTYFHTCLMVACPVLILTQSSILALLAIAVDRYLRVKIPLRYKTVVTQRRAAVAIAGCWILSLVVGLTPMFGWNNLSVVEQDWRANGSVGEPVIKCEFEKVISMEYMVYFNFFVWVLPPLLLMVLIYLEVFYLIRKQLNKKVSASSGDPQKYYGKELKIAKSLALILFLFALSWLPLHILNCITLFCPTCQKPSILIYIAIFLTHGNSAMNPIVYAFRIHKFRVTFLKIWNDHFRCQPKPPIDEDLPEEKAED
Description: (§1) Synaptic membranes of rat cerebral cortex are employed in the assay. After decapitation of the rat, cerebral cortex is separated and homogenized sufficiently in 1:15 (W/V) sucrose solution, after centrifuged, the supernatant is taken and centrifuged again. After discarding the supernatant, the sediment is resuspended in 1:30 (W/V) Tris-HCl buffer (50 mM, PH 7.4), homogenized, washed and then centrifuged, after repeating the wash process 3 times, the sediment is resuspended in 1:5 (W/V) Tris-HCl buffer (50 mM, PH 7.4) again and subpakaged, stored at −80° C. The protein concentration is measured by Bradford method (Bradford M M. A rapid and sensitive method for the quantitation of microgram quantities of proteins utilizing the principle of protein-dye binding. Anal Biochem. 1976; 72: 248-254.). All the above procedures are operated at 4° C.
(§2) The above model is used to evaluate the competitive binding of paeoniflorin with the A1R and A2aR receptor mixed agonist [^3H]-ethyl amide adenosine ([3H]-NECA) and the A1R receptor selective agonist [3H]-CCPA.
(§3) After decapitation of the rat, cerebral cortex was separated immediately, and put it into ice-cold physiological saline. […] The protein concentration was measured by Bradford method. […]

[4] = molecular target: T2, A2AR (Rattus norvegicus, UniProt P30543); experiment: Competitive binding with [3H]-NECA, low-affinity site (two-site fit), rat cerebral cortex synaptic membranes; conditions: two-site competition fit, site 2; 25 nmol/L [3H]-NECA; rat cerebral cortex synaptic membrane; read-out: EC502, competitive binding with [3H]-NECA
T2 construct: Synaptic membranes of rat cerebral cortex are employed in the assay; from tissue; host or cells: rat cerebral cortex synaptic membranes
Description: as §1, §2, §3

[5] = test system: mouse PD model induced by MPTP; experiment: MPTP-induced mouse PD model (pole test, TH staining); type: in vivo; conditions: 5 mg·kg^−1 s.c. for 11 days, C57B1/6J mice
Description: The mouse PD model induced by 1-methyl-4-phenyl-1,2,3,6-tetrahydro-pyridine (MPTP) is used to test the effect of paeoniflorin on the ability of climbing pole and the deletion of dopamine neuron of substantia nigra of midbrain in the PD model mouse. Male C57B1/6J mice of 20-25 g are used. The climbing pole time of the mice are measured before experiment. The mice are divided into 5 groups according to the climbing pole time and there are 8 mice in each group. Low dose and middle dose paeoniflorin are administered by subcutaneous injection for 11 days continuously, and 1-methyl-4-phenyl-1,2,3,6-tetrahydro-pyridine (MPTP) is injected intraperitoneally (ip) at 2 hours intervals for 4 times on day 8 of the experiment to induce mouse PD model.
The motor activity of the mice are measured by pole test, the mice are put on to the vertical coarse pole of 55 cm long and 8 mm diameter with head downward, and the time that the mice go downward to all the limbs contact the ground is measured (Hamaue N, Minami M, Terado M, Hirafuji M, Endo T, Machida M, Hiroshige T, Ogata A, Tashiro K, Saito H, Parvez S H. Comparative study of the effects of isatin, an endogenous MAO-inhibitor, and selegiline on bradykinesia and dopamine levels in a rat model of Parkinson's disease induced by the Japanese encephalitis virus. Neurotoxicology. 2004 January; 25(1-2):205-13.).
Male C57B1/6J mice of 20-25 g were used. The climbing pole time of the mice was measured before experiment. The mice were divided into 5 groups according to the climbing pole time and there were 8 mice in each group. Paeoniflorin (2.5 mg kg^−1, 5 mg kg^−1) were administered by subcutaneous injection for 11 days continuously, and 1-methyl-4-phenyl-1,2,3,6-tetrahydro-pyridine (MPTP) was injected intraperitoneally (ip) at 2 hours intervals for 4 times on day 8 of the experiment to induce mouse PD model. The administration schedule was as follows:
The mice were put on to the vertical coarse pole of 55 cm long and 8 mm diameter with head downward, and the time that the mice went downward to all the limbs contacted the ground was measured.
The heart was perfused with 4% paraformaldehyde to be pro-fixed, and then the cerebrum was taken out, and post-fixed with 4% formaldehyde solution for 1 week. Coronal sections were performed continuously (section thick […]). Tyrosine hydroxylase (TH) was used as the specific marker of dopamine neuron. The primary antibody was monoclonal mouse TH antibody (1:1000, Sigma), the second antibody was Alexa fluor 488 fluorescence labeled goat anti-mouse (1:1000, Molecular Probes). Photographs were taken under fluorescence microscope (Olympus DP70), and TH positive cells of substantia nigra were counted.

[6] = Blood pressure and heart rate of conscious rat (tail sleeve sensor); type: in vivo; conditions: 10, 40, 160 mg kg^−1 i.v., 5 min to 2 hr after administration
Description: The conscious rats are used as research subject, sensors of tail sleeve are used to transduce the pressure pulse to phototriodes and convert it into corresponding blood pressure and heart rate values. When the rats calm down, their blood pressure and heart rate values are recorded as the base values. Then, physiological saline, various doses of paeoniflorin and reserpine are injected through caudal vein respectively.
The changes of blood pressure and heart rate before the administration (0 min) and after the administration (5 min to 2 hr) are recorded.
The conscious rats were used as research subject, sensor of tail sleeve were used to transduce the pressure pulse to phototriodes and converted it into corresponding blood pressure value and heart rate values. When the rats calmed down, their blood pressure and heart rate value were recorded as the base values. Then, physiological saline, paeoniflorin (10, 40, 160 mg kg^−1) and reserpine were injected through caudal vein respectively.
The changes of blood pressure and heart rate before the administration (0 min) and after the administration (5 min to 2 hr) were recorded.

[7] = molecular target: T1, A1R; experiment: Competitive binding with [3H]-CCPA, rat cerebral cortex synaptic membranes; conditions: 0.2 nmol/L [3H]-CCPA; rat cerebral cortex synaptic membrane
Description: as §1, §2, §3

T2 sequence (P30543 whole entry): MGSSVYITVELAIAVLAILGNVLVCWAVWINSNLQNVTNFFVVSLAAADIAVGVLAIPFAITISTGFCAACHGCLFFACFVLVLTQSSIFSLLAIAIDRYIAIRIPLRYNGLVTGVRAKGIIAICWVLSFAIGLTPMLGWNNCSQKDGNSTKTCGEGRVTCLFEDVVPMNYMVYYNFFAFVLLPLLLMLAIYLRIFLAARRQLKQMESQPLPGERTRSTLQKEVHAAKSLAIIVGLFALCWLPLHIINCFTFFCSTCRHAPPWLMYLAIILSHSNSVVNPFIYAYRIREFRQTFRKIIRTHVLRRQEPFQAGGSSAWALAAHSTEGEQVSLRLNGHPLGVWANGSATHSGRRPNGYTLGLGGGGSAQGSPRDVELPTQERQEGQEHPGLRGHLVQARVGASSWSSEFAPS

Molecule	effect of DPCPX on the protection by paeoniflorin ([1]; DPCPX s.c. 15 min before ischemia + paeoniflorin 10 mg·kg^−1 s.c.)	neurological symptom (neurological defect score) ([2]; 5 mg·kg^−1 s.c. at 15 min and 6 h after ischemia)	injury of cerebral subcortical nucleus and cerebral cortex caused by ischemia ([2]; 5 mg·kg^−1 s.c., TTC staining)	selectivity EC502/EC501 ([3]; A1R over A2AR, [3H]-NECA two-site fit) [times]	EC50 ([3]; two-site competition fit, site 1, 25 nmol/L [3H]-NECA, rat cerebral cortex synaptic membrane, read-out: EC501, competitive binding with [3H]-NECA) [nM]	EC50 [4] [µM]	deletion of dopaminergic neuron induced by MPTP (TH staining, substantia nigra) [5]	motor dysfunction (bradykinesia) caused by MPTP, pole test [5]	deletion of dopaminergic neuron induced by MPTP (TH staining, substantia nigra) ([5]; listed as Paeoniflorin)	motor dysfunction (bradykinesia) caused by MPTP, pole test ([5]; listed as Paeoniflorin)	blood pressure of conscious rats [6]	heart rate of conscious rats [6]	blood pressure of conscious rats ([6]; listed as Paeoniflorin)	heart rate of conscious rats ([6]; listed as Paeoniflorin)	EC50 [7] [nM]	injury of cerebral subcortical nucleus and cerebral cortex caused by ischemia, dose dependence ([1]; 2.5, 5, 10 mg·kg^−1 s.c., TTC staining)
CCCn1c(=O)c2[nH]c(C3CCCC3)nc2n(CCC)c1=O [DPCPX]	this effect can be antagonized; also recorded: block the protection of paeoniflorin; also recorded: this effect could be inhibited	–	–	–	–	–	–	–	–	–	–	–	–	–	–	–
β-D-Glucopyranoside,56-[(benzoyloxy)methyl]tetrahydro-5-hydroxy-2-methyl-2,5-methano-1H-3,4-dioxacyclobuta[cd]Pentalen-1a(2H)-yl,[lar-claα,2β,3aα,5aα,5bα]] [paeoniflorin]	–	improves the neurological symptom; also recorded: obviously improved the neurological symptom	significantly decreases the injury; also recorded: significantly decreased the defect	360	13.9	5	antagonize the deletion of dopaminergic neuron	significantly improve the motor dysfunction	significantly antagonized	significantly antagonized	does not affect	does not affect	did not affect	did not affect	19.8	decreases the injury of cerebral subcortical nucleus and cerebral cortex caused by ischemia dose-dependently; also recorded: dose-dependently decreased the defect
